This note sets out measurements from ChEMBL document CHEMBL1130228, “Potent and selective 1,2,3-trisubstituted indole NPY Y-1 antagonists” (J Med Chem, 1997).

In test [1] the target is T1, Neuropeptide Y receptor type 2 (Homo sapiens, UniProt P49146).
T1 sequence (P49146 whole entry): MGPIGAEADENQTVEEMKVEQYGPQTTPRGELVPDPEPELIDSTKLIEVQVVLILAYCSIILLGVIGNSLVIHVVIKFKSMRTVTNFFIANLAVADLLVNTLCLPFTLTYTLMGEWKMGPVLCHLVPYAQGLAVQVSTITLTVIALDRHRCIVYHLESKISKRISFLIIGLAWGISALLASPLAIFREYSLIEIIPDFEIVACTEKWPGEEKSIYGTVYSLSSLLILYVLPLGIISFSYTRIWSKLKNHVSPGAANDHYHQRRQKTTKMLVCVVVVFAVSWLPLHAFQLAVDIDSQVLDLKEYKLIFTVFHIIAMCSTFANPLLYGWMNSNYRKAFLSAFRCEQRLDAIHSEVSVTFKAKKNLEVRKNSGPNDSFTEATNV
In words: Affinity for human Neuropeptide Y receptor type 2.

The target in test [2] is T2, Neuropeptide Y receptor type 1 (Homo sapiens, UniProt P25929).
T2 sequence (P25929 whole entry): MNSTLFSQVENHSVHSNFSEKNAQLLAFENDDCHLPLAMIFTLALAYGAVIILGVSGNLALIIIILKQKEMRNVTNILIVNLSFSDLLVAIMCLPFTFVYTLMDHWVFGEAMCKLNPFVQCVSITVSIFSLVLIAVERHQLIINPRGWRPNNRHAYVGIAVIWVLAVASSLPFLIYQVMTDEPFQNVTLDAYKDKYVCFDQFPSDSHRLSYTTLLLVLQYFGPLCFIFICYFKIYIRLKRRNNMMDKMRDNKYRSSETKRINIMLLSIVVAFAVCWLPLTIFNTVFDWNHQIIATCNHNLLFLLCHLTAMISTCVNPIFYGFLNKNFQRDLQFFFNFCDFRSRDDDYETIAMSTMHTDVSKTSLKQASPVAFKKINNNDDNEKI
In words: Binding affinity for Neuropeptide Y receptor type 1 expressed in AV-12 cells. In kind it is cell-based, AV12.

Test [3] has as its target T3, Neuropeptide Y receptor type 5 (Homo sapiens, UniProt Q15761).
T3 sequence (Q15761 whole entry): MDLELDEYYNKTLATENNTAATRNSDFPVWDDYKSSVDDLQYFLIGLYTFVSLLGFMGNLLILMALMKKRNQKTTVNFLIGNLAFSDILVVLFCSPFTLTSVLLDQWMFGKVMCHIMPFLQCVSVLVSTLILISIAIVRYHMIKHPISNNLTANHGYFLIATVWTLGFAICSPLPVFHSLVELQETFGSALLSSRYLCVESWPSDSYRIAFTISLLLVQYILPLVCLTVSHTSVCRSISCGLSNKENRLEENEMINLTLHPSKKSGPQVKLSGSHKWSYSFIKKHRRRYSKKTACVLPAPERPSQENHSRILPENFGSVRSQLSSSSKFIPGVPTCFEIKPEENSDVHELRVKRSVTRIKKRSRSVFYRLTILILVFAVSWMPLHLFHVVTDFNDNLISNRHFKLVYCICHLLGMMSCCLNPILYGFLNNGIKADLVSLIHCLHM
Put plainly: Affinity for human Neuropeptide Y receptor type 5.

Test [4] concerns the target Neuropeptide Y receptor type 4 (Homo sapiens, UniProt P50391). Put plainly: Affinity for human Neuropeptide Y receptor type 4.
In test [5] the test system is Mus musculus. Put plainly: Ability to block increase in food consumption elicited by NPY (230 pmol, icv) into lateral ventricle of mice. In kind it is functional.
For test [6], the target named is T2, Neuropeptide Y receptor type 1. Put plainly: Ability to reverse Neuropeptide Y receptor type 1-induced inhibition of forskolin-induced inhibition of forskolin-stimulated cAMP. It counts as functional.
In test [7] the test system is SK-N-MC. In words: Ability to reverse NPY-induced intracellular [Ca2+] mobilization in SK-N-MC cells. In kind it is functional, cell-based, Homo sapiens.

Neuropeptide Y receptor type 4, sequence (P50391 whole entry): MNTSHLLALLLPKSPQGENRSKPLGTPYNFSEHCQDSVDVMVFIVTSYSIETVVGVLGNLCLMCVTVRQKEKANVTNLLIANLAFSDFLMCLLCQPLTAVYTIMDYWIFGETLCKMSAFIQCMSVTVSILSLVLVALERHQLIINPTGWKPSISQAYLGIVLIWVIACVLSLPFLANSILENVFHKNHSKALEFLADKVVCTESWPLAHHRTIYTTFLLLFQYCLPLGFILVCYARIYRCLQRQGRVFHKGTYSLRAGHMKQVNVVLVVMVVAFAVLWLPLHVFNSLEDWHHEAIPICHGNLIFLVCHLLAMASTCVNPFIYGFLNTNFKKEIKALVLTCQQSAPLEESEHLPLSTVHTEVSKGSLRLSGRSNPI

Consider `Clc1ccc(OCc2c(CN3CCC(N4CCCCC4)CC3)c3ccccc3n2CCN2CCCCC2)cc1`, for which the Ki in test [1] was greater than 10 µM; in test [2], 98 nM; in test [3], greater than 10 µM; in test [4] it was greater than 10 µM.

Take `Cn1c(COc2ccc(Cl)cc2)c(CCN2CCCCC2)c2ccccc21`: the Ki in test [1] is greater than 10 µM; in test [2], 2880 nM; in test [3], greater than 10 µM; in test [4], greater than 10 µM.

Take `Cn1c(COc2ccc(Cl)cc2)c(CCN2CCC(N3CCCCC3)CC2)c2ccccc21`: the Ki in test [1] is greater than 10 µM; in test [2] it was 93 nM; in test [3], greater than 10 µM; in test [4], greater than 10 µM.

For the molecule `Cn1c(COc2ccc(Cl)cc2Cl)c(CN2CCCCC2)c2ccccc21`, the Ki was greater than 10 µM in test [1], 1260 nM in test [2], greater than 10 µM in test [3] and greater than 10 µM in test [4].

As for `Cn1c(COc2ccc(Cl)cc2)c(CN2CCC(N3CCCCC3)CC2)c2ccccc21`, the Ki was greater than 10 µM in test [1], 559 nM in test [2], greater than 10 µM in test [3] and greater than 10 µM in test [4].

For `Cn1c(COc2ccc(Cl)cc2)c(C(=O)CN2CCC(N3CCCCC3)CC2)c2ccccc21`, the Ki in test [1] is greater than 10 µM; in test [2] it was 26 nM; in test [3], greater than 10 µM; in test [4], greater than 10 µM.

Consider `O=C(CN1CCC(N2CCCCC2)CC1)c1c(COc2ccc(Cl)cc2)n(CCC[C@@H]2CCCNC2)c2ccccc12`, for which the ED50 in test [5] is 17 nM. The inhibitory constant (Ki) in test [1] was greater than 10 µM; in test [6], 1.8 nM; in test [2], 0.75 nM; in test [3] it was greater than 10 µM; in test [4], greater than 10 µM; in test [7], 3.2 nM.

Regarding `Cn1c(COc2ccc(Cl)cc2)c(C(=O)C(=O)N2CCC(N3CCCCC3)CC2)c2ccccc21`, the Ki in test [1] was greater than 10 µM; in test [2] it was 440 nM; in test [3] it was greater than 10 µM; in test [4], greater than 10 µM.

Consider `O=C(CN1CCC(N2CCCCC2)CC1)c1c(COc2ccc(Cl)cc2)n(CCC[C@H]2CCCNC2)c2ccccc12`, for which the Ki in test [1] is greater than 10 µM; in test [2], 1.4 nM; in test [3], greater than 10 µM; in test [4], greater than 10 µM.

Regarding `N=C(N)NCCC[C@@H](NC(=O)C(c1ccccc1)c1ccccc1)C(=O)NCc1ccc(O)cc1`, the Ki in test [1], in test [3] and in test [4] was greater than 10 µM each time.

In the case of `O=C(CN1CCC(N2CCCCC2)CC1)c1c(COc2ccc(Cl)cc2)n(CCC2CCNCC2)c2ccccc12`, the Ki in test [1] was greater than 10 µM; in test [2], 1.9 nM; in test [3], greater than 10 µM; in test [4], greater than 10 µM.

As for `Cn1c(COc2ccc(Cl)cc2)c(CN2CCCCC2)c2ccccc21`, the Ki in test [1] is greater than 10 µM; in test [2] it was 2320 nM; in test [3] it was greater than 10 µM; in test [4], greater than 10 µM.
